Assay results from paper PMC10534486 (Pharmaceutics, 2023).
Read-outs that look alike come from different tables or passages of the source.

Columns and labels:
in vitro = in vitro ADME, rat
Protocol: […]. […] […].
The binding percentage (%) was calculated using the equation: Binding percentage %=CT−CF/CT×100 where CF represents the concentration of free drug measured in the ultrafiltrate and CT is the total drug concentration introduced into the ultrafiltration system before centrifugation.

[1] = Pharmacokinetics after oral administration of 20 mg/kg to CON and PHL rats; type: in vivo, Sprague–Dawley rats; details: for AUC(0-inf) / Cmax / CL renal / half-life / k el / bioavailability: po, 20 mg/kg; for CL renal: read-out: CLR (time-averaged renal clearance); for half-life: read-out: Terminal half-life; for k el: read-out: k (elimination rate constant) (converted); for bioavailability: read-out: F (absolute oral bioavailability)
Protocol: The rats were randomly assigned to one of two experimental groups: a control (CON) and a P-407-induced hyperlipidemia (PHL) group. P-407 was dissolved in cold sterile 0.9% NaCl-injectable solution and stored in a refrigerator for at least 6 h to ensure complete dissolution. Rats in the PHL group received a single intraperitoneal injection of 1 g/kg P-407, whereas rats in the CON group received a single intraperitoneal injection of an equal volume of 0.9% NaCl. Hyperlipidemia was defined as a total cholesterol concentration higher than 220 mg/dL or a low-density lipoprotein (LDL) cholesterol concentration higher than 160 mg/dL [29, 30].
Rats were anesthetized with ketamine (100 mg/kg) prior to surgical procedures. […] Prior to oral investigation, the rats were fasted overnight and only the carotid artery was cannulated for blood collection. The rats were allowed to recover for 3–4 h after surgical procedures prior to the performance of subsequent experiments.
. Blood samples (0.12 mL) were obtained at 0 (prior to drug administration), 1, 5, 15, 30, 45, 60, 90, 120, 180, and 240 min through the carotid artery. […]. Blood samples (0.12 mL) were collected through the carotid artery at 0 (prior to drug administration), 5, 15, 30, 45, 60, 90, 120, 180, 240, 360, and 480 min. All blood samples were centrifuged for 1 min at 8000× g and plasma (50 μL) samples were collected. After the blood samples were obtained, 0.3 mL of heparinized 0.9% NaCl solution (20 IU/mL) was immediately injected into the carotid artery to prevent blood clotting.
At 24 h, the rats were sacrificed and the abdomen of each was opened. The entire gastrointestinal tract of each rat was excised, cut into small pieces, and immersed in a beaker containing 50 mL of methanol. After evenly mixing the contents in the beaker, a 50 μL aliquot of each supernatant was withdrawn. The volumes of urine samples collected for 24 h after drug administration were measured and two 100 μL aliquots of each were collected.
The following pharmacokinetic parameters were determined by non-compartmental analysis (WinNonlin, Pharsight Co., Mountain View, CA, USA) using standard methods: terminal half-life, time-averaged total body (CL), renal (CLR), and nonrenal (CLNR) clearances, apparent volume of distribution at steady state (Vss), area under the plasma concentration–time curve from zero to infinity (AUC0–∞), and elimination rate constant (k). AUC0–∞ was calculated using the trapezoidal rule extrapolation method, whereas the maximum plasma concentration (Cmax) and time required to reach Cmax (Tmax) were determined directly from the plasma concentration–time curves. (R3-3) The absorption rate constants (ka) for oral administration were also estimated under the assumption of one-compartment model and first-order elimination.

[2] = Distribution of tofacitinib in tissues 30 min after intravenous administration; type: in vivo; details: Sprague-Dawley, rat; all tissues of CON and PHL rats, 30 min after intravenous 10 mg/kg; read-out: Tissue-to-plasma (T/P) ratios
Protocol: . Tissue samples, including fat, brain, kidney, heart, liver, large intestine, mesentery, lung, small intestine, muscle, stomach, and spleen, were removed from each rat, rinsed in phosphate-buffered saline (PBS, pH 7.4), and blotted dry with paper towels to remove any remaining blood. Approximately 1 g of each tissue was added to 4 volumes of homogenizing buffer, followed by homogenization (IKA Labortechnik, Staufen, Germany) and centrifugation at 8000× g for 10 min.

[3] = for CLR estimated from the free fraction in plasma: intravenous
[4] = cited from earlier work
P-gp = tested on: P-gp; parameters: method as in PMID 24704892; details: cited from earlier work
in vivo = details: Sprague-Dawley, rat, plasma, iv, 10 mg/kg; for clearance: CL (time-averaged total body clearance); for CL renal: CLR (time-averaged renal clearance); for MRT: MRT (mean residence time); for half-life: Terminal half-life; for Vd: Vss (apparent volume of distribution at steady state); for k el: k (elimination rate constant)
[5] = Vmax, Km and CLint for disappearance of tofacitinib in hepatic microsomes
[6] = Vmax, Km and CLint for disappearance of tofacitinib in intestinal microsomes
[7] = Sprague-Dawley, rat, plasma, CON rats (n = 6)
[8] = Sprague-Dawley, rat, plasma, PHL rats (n = 7)
[9] = oral 20 mg/kg, CON rats (n = 6)
[10] = oral 20 mg/kg, PHL rats (n = 7)

## C[C@@H]1CCN(C(=O)CC#N)C[C@@H]1N(C)c1ncnc2[nH]ccc12 [tofacitinib, Tofacitinib]
In vitro; pH 7.4
  recovery at 30 min, 5 µg/mL: 100 ± 2.84%
In vitro; rat, plasma, 30 min, 5 µg/mL
  Free (unbound to plasma proteins) fraction in plasma: 40.8%
In vitro; rat, plasma, Free (unbound to plasma proteins) fraction in plasma
  fraction unbound at 30 min, 5 µg/mL: 0.667
In vitro; rat, plasma, Plasma protein binding
  fraction unbound at 30 min, 5 µg/mL: 0.408
[1]; [7]
  AUC(0-inf): 4800 ng·h/mL
  Cmax: 2960 ± 643 ng/mL
  CL renal: 3.52 ± 1.8 mL/min/kg
  half-life: 62.1 ± 16.7 min
  k el: 0.000197 s⁻¹
[1]; Sprague-Dawley, rat, plasma, CON rats
  bioavailability: 53.7%
[1]; [8]
  AUC(0-inf): 7950 ng·h/mL
  Cmax: 4750 ± 1180 ng/mL
  CL renal: 1.28 ± 0.786 mL/min/kg
  half-life: 84.3 ± 21.2 min
  k el: 0.000145 s⁻¹
[1]; Sprague-Dawley, rat, plasma, PHL rats
  bioavailability: 51.4%
[1]; Sprague-Dawley, rat, plasma, oral 20 mg/kg, PHL rats (n = 7)
  Tmax: 30 min
[1]; oral 20 mg/kg
  AUC0–∞ higher in PHL than in CON rats: 65.6%
  CLR lower in PHL than in CON rats: 63.6%
  Cmax higher in PHL than in CON rats: 60.5%
[1]; [9]
  Ae0–24 h (drug excreted unchanged in urine for 24 h): 4.90 ± 1.95 % of dose
  ka (absorption rate constant): 0.127 ± 0.0389 min⁻¹
[1]; [10]
  Ae0–24 h (drug excreted unchanged in urine for 24 h): 3.02 ± 1.87 % of dose
  ka (absorption rate constant): 0.156 ± 0.0885 min⁻¹
[1]; oral 20 mg/kg, all CON and PHL rats
  Time after dosing at which drug was detected in plasma: 5 min
[2]
  Kp at 30 min: < 1
[3]; intravenous 10 mg/kg
  AUC0–∞ higher in PHL than in CON rats: 73.5%
  CL slower in PHL than in CON rats: 43.0%
[3]; intravenous 10 mg/kg, CON rats (n = 7)
  Ae0–24 h (drug excreted unchanged in urine for 24 h): 4.06 ± 1.89 % of dose
[3]; intravenous 10 mg/kg, PHL rats (n = 6)
  Ae0–24 h (drug excreted unchanged in urine for 24 h): 5.76 ± 2.53 % of dose
[3]; CON rats
  CLR estimated from the free fraction in plasma: 4.66 mL/min/kg
[3]; PHL rats
  CLR estimated from the free fraction in plasma: 6.05 mL/min/kg
[4]
  Terminal half-life: approximately 3.3 h
P-gp
  P-gp substrate status: substrate of P-gp
In vivo; AUC (AUC0–∞), CON rats (n = 7)
  AUC(0-inf): 4470 ng·h/mL
In vivo; CON rats (n = 7)
  clearance: 37.9 ± 4.85 mL/min/kg
  CL renal: 3.11 ± 1.58 mL/min/kg
  MRT: 22.6 min
  half-life: 29.6 ± 4.55 min
  Vd: 0.847 ± 0.191 L/kg
  k el: 0.000398 s⁻¹
In vivo; PHL rats (n = 6)
  clearance: 21.6 ± 1.13 mL/min/kg
  CL renal: 2.47 ± 1.1 mL/min/kg
  MRT: 22.7 min
  half-life: 34.5 ± 2.29 min
  Vd: 0.49 ± 0.136 L/kg
  k el: 0.000337 s⁻¹
[5]
  CLint lower in PHL than in CON rats: 36.9%
  Km, PHL versus CON rats: did not differ significantly
[6]
  CLint lower in PHL than in CON rats: 51.3%
  Km, PHL versus CON rats: comparable
